Test results taken from article PMC11003488 (Journal of Enzyme Inhibition and Medicinal Chemistry, 2023).

What was measured:
[1] = system: A549/ATCC; assay: NCI-60 SRB growth inhibition, one-dose and five-dose; type: cell-based; details: Homo sapiens, A549, read-out: percent growth inhibition
[2] = system: HOP-62; assay: as above; type: cell-based; details: Homo sapiens, HOP-62, read-out: percent growth inhibition
[3] = system: HOP-92; assay: as above; type: cell-based; details: Homo sapiens, HOP-92, read-out: percent growth inhibition
[4] = system: NCI-H460; assay: as above; type: cell-based; details: Homo sapiens, NCI-H460, read-out: percent growth inhibition
[5] = system: HCT-116; assay: as above; type: cell-based; details: Homo sapiens, HCT-116, read-out: percent growth inhibition
[6] = system: SW-620; assay: as above; type: cell-based; details: Homo sapiens, SW-620, read-out: percent growth inhibition
[7] = system: SF-295; assay: as above; type: cell-based; details: Homo sapiens, SF-295, read-out: percent growth inhibition
[8] = system: SF-539; assay: as above; type: cell-based; details: Homo sapiens, SF-539, read-out: percent growth inhibition
[9] = system: SK-MEL-5; assay: as above; type: cell-based; details: Homo sapiens, SK-MEL-5, read-out: percent growth inhibition
[10] = system: UACC-62; assay: as above; type: cell-based; details: Homo sapiens, UACC-62, read-out: percent growth inhibition
[11] = system: OVCAR-5; assay: as above; type: cell-based; details: Homo sapiens, OVCAR-5, read-out: percent growth inhibition
[12] = system: SK-OV-3; assay: as above; type: cell-based; details: Homo sapiens, SK-OV-3, read-out: percent growth inhibition
[13] = system: TK-10; assay: as above; type: cell-based; details: Homo sapiens, TK-10, read-out: percent growth inhibition
[14] = system: DU-145; assay: as above; type: cell-based; details: Homo sapiens, DU-145, read-out: percent growth inhibition
[15] = system: BT-549; assay: as above; type: cell-based; details: Homo sapiens, BT-549, read-out: percent growth inhibition
[16] = system: NCI 60-cell line panel (full panel); assay: NCI-60 SRB growth inhibition, full panel mean / MG-MID; type: cell-based, human; details: mean over NCI-60 panel; single dose 10 µM

Structure (SMILES): CC(=O)Nc1ccc(CNc2cccc(C(=O)/C=C/c3c[nH]cn3)c2)cc1 [Compound 5l, (E)-N-(4-(((3–(3-(1H-imidazol-4-yl)acryloyl)phenyl)amino)methyl)phenyl)acetamide]
- inhibition at 10 µM [1]: 7.54%
- inhibition at 10 µM [2]: 5.06%
- inhibition at 10 µM [3]: 12.3%
- inhibition at 10 µM [4]: 4.86%
- inhibition at 10 µM [5]: 29.4%
- inhibition at 10 µM [6]: 24.8%
- inhibition at 10 µM [7]: -1.21%
- inhibition at 10 µM [8]: 14.1%
- inhibition at 10 µM [9]: 16%
- inhibition at 10 µM [10]: 34%
- inhibition at 10 µM [11]: 5.08%
- inhibition at 10 µM [12]: -9.94%
- inhibition at 10 µM [13]: 12.9%
- inhibition at 10 µM [14]: 11.1%
- inhibition at 10 µM [15]: 34.9%
- Full panel Mean GI % [16]: 24.10%

Structure (SMILES): O=C(/C=C/c1c[nH]cn1)c1cccc(NCc2ccc(CO)cc2)c1 [Compound 5m, (E)-1–(3-((4-(hydroxymethyl)benzyl)amino)phenyl)-3-(1H-imidazol-4-yl)prop-2-en-1-one]
- inhibition at 10 µM [1]: 14.1%
- inhibition at 10 µM [2]: 13.9%
- inhibition at 10 µM [3]: 22.2%
- inhibition at 10 µM [4]: 6.83%
- inhibition at 10 µM [5]: 36.5%
- inhibition at 10 µM [6]: 23.8%
- inhibition at 10 µM [7]: 4.92%
- inhibition at 10 µM [8]: 11%
- inhibition at 10 µM [9]: 21.7%
- inhibition at 10 µM [10]: 30.5%
- inhibition at 10 µM [11]: -1.46%
- inhibition at 10 µM [12]: -2.54%
- inhibition at 10 µM [13]: 6.96%
- inhibition at 10 µM [14]: 6.04%
- inhibition at 10 µM [15]: 34%
- Full panel Mean GI % [16]: 25.19%

Structure (SMILES): O=C(/C=C/c1c[nH]cn1)c1cccc(NCc2ccc3oc(=O)ccc3c2)c1 [Compound 5n, (E)-6-(((3–(3-(1H-imidazol-4-yl)acryloyl)phenyl)amino)methyl)-2H-chromen-2-one]
- inhibition at 10 µM [1]: 25.6%
- inhibition at 10 µM [2]: 24.3%
- inhibition at 10 µM [3]: 25.8%
- inhibition at 10 µM [4]: 23.4%
- inhibition at 10 µM [5]: 58.1%
- inhibition at 10 µM [6]: 31.8%
- inhibition at 10 µM [7]: 12.6%
- inhibition at 10 µM [8]: 14.8%
- inhibition at 10 µM [9]: 30.6%
- inhibition at 10 µM [10]: 45.2%
- inhibition at 10 µM [11]: 10.4%
- inhibition at 10 µM [12]: -4.46%
- inhibition at 10 µM [13]: 30%
- inhibition at 10 µM [14]: 20.9%
- inhibition at 10 µM [15]: 22.9%
- Full panel Mean GI % [16]: 37.53%
